# In article PMC6006164, “Natural cyclopeptide RA-V inhibits the NF-κB signaling pathway by targeting TAK1” (Cell Death & Disease, 2018):
# Where “and” joins values, the source holds several entries; their conditions need not be identical. Equal entries are not always repeated.
# System: NF-κB signaling pathway
# Experiment: NF-κB-dependent luciferase reporter (5×κB-luciferase/pTK-Renilla), TNF-α-induced, HEK293T cells
# Format: cell-based
# Conditions: HEK293T screen, 24-well
# Description: HEK293T or HeLa cells were seeded in 24-well plates and transiently transfected with the 5 × κB-luciferase and pTK-Renilla reporters using Lipofectamine 2000 (Invitrogen) for 18 h. The cells were then incubated with different concentrations of the compounds for the indicated times and subsequently stimulated with 10 ng/mL TNF-α for 2 h. The luciferase activity in the cell lysates was analyzed using the Dual Luciferase Reporter Assay System (Promega). The luciferase reporter assays were performed as previously described.
# Supplementary Figure 1. RA-V has the best inhibitory effect on NF-κB signaling pathway among RAs. (a-b) HEK293T cells were transfected with the 5×κB-luciferase and pTK-Renilla reporters. Twenty-four hours after transfection, the cells were incubated with various concentrations of the indicated compounds for 6 h and then treated with 10 ng/ml TNF-α for 2 h before the luciferase activity assays. The data are presented as the means ± S.D. from three independent experiments. […]
# Scheme for CB12 synthesis. (c) CB12 inhibited NF-κB reporter activity in a dose-dependent manner. The HEK293T cells were transfected with the 5×κB-luciferase and pTK-Renilla reporters. Twenty-four h after transfection, the cells were treated with various concentrations of CB12 for 6 h and then treated with 10 ng/ml TNF-α for 2 h before the luciferase activity assays. (d) […]
# Supplementary Table 3: Screening data of small molecules
# Category Parameter Description
# Assay Type of assay Cell-based
# Target NF-κB signaling pathway
# Primary measurement Detection of Firefly luciferase enzyme activities and Renilla Luciferase expression
# Key reagents 5 × κB-lucieferase and luciferase assay (Progema)
# Assay protocol HEK293T cells were seeded in 24 -well plates and transiently transfected with 20 ng of 5×κB-luciferase and 2 ng of pTK-Renilla reporters using Lipofectamine
# 2000 (Invitrogen) for 18 h. The cells were then incubated with small molecules (10 μM) for 6 hours, and subsequently stimulated with 10 ng/ml TNF -α for 2 h. Luciferase activity of the cell lysates was analysed by the Dual Luciferase Reported Assay System
# (Promega). The Firefly luciferase enzyme activities were determined for NF -κB signaling activities and normalized to Renilla Luciferase expression.
# Library Library size approximately 200
# Library composition natural and synthetic chemical compounds, including cyclopeptides, quinones and terpenes.
# Source State Key Laboratory of Phytochemistry and Plant
# Resources in West China, Kunming Institute of Botany, Chinese Academy of Sciences
# Screen Format 24-well, Corning
# Concentration(s) tested 10 μM
# Reagent/ compound dispensing system Manual
# Detection instrument and software Synergy 2 (BioTek)
# Assay validation/QC Velcade inhibits NF-κB signaling pathway
# Normalization The Firefly luciferase enzyme activities were normalized by Renilla Luciferase expression
# Post-HTS analysis Hit criteria κB-luc/ Renilla ratio < 0.5 standard deviations from the […]
# Hit rate Approximately 15%
# Confirmation of hit purity and structure Compounds were verified by HPLC and NMR
row,Compound,"NF-κB signaling pathway (plate control, assay validation)"
1,"CC(C)C[C@H](NC(=O)[C@H](Cc1ccccc1)NC(=O)c1cnccn1)B(O)O [Velcade, Bortezomib, reference compound]",inhibits

# Same assay, conditions: HEK293T; compounds 6 h, then 10 ng/ml TNF-α 2 h; means of three independent experiments; read-out: IC50 (μM), NF-κB reporter activity
row,Compound,IC50
1,RA-VII,0.089 µM
2,Rubiyunnanin E,> 15 µM
3,Rubicordifolin C,6.87 µM
4,RA-III,1.1 µM
5,RA-XIII-OMe,> 15 µM
6,RA-XXIV,11.9 µM
7,Rubiaschumanin A,> 15 µM
8,Rubiyunnanin G,> 15 µM
9,Rubiyunnanin A,> 15 µM
10,Rubiyunnanin C,> 15 µM
11,RA-XII,1.85 µM
12,Rubiyunnanin D,> 15 µM
13,Rubiyunnanin H,> 15 µM
14,RA-XIII,> 15 µM

# More lines, now with the values ahead:
row,IC50,Compound
1,3.88 µM,Rubiaschumanin B
2,> 15 µM,O-seco-RA-V
3,> 15 µM and 15.1 µM,Rubiyunnanin B
4,> 15 µM,Rubiyunnanin F
5,10.6 µM,RA-IV
6,1.31 µM,RA-I
7,> 15 µM,RA-XI isoform 2
8,> 15 µM,Rubiaschumanin C
9,> 15 µM,RA-XI isoform 1
10,2.06 µM,C-6β-oxy-RA-IV
11,> 15 µM,Rubiyunnanin I
12,3.41 µM,Rubicordifolin A
13,> 15 µM and 19 µM,RY-II

# Molecular target: T1, TAK1 (Homo sapiens, UniProt O43318)
# T1 construct: expressed in transfected cells; host or cells: HEK293T
# T1 sequence (O43318 1-579 isoform O43318-2): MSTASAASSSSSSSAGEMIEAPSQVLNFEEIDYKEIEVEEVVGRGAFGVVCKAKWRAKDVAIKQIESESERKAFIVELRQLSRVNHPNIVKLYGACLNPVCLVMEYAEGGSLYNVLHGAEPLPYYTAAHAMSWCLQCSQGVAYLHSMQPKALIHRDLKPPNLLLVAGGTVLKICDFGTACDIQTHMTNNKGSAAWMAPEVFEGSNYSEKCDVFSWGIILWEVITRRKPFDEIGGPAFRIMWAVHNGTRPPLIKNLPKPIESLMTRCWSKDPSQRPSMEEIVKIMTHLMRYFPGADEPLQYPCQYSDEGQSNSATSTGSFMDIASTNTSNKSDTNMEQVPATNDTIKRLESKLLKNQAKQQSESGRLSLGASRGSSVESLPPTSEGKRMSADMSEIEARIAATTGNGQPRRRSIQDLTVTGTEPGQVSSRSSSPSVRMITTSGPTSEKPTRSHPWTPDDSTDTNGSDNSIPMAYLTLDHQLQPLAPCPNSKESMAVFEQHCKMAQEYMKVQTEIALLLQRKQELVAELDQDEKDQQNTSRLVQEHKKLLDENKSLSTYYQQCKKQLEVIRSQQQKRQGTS
# Experiment: Streptavidin agarose pull-down with biotin-tagged probe CB12
# Format: binding
# Conditions: lysates of HEK293T transfected with TAK1; RA-V in 10-fold excess
# Description: HEK293T cells were transfected with TAK1 for 24 h, then the cell lysates were incubated with biotin or CB12 followed by streptavidin agarose pull-down. […] HEK293T cells were transfected with the indicated plasmids for 24 h. The cell lysates were pulled down with streptavidin agarose and then immunoblotted with HA or Flag antibody. Each experiment was repeated at least three times
# HEK293T cells were transfected with TAK1-N or TAK1-C for 24 h. The cells lysates were incubated with CB12 or biotin and precipitated with streptavidin-coated sepharose and were analyzed by immunoblotting with Flag antibody. b The model for RA-V binding to the crystal structure of the TAK1–TAB1 fusion protein (PDB 4GS6). […] HEK293T cells were transfected with TAK1 for 24 h, and then the cell lysates were incubated with biotin or CB12 before precipitation with streptavidin agarose. […] HeLa cells were incubated with various concentrations of RA-V for 12 h and then treated with 10 ng/mL TNF-α for 10 min. The cell lysates were prepared and western blotted with the indicated antibodies. Each experiment was repeated at least three times
# HEK293T cells were harvested and lysed in RIPA buffer with protease inhibitors. […] The samples were separated by SDS-PAGE, and the bound proteins were detected using the indicated antibodies.
row,Compound,competition with the CB12–TAK1 interaction (pull-down)
1,"COc1cc(O)c2c(c1)/C=C/C[C@H](O)[C@H](O)C(=O)/C=C\C[C@H](C)OC2=O [(5Z)-7-Oxozeaenol, reference compound]",effectively competed
